Results: patent publication US20260199371A1, “COORDINATION COMPOUND, COMPOSITIONS, AND USES THEREOF FOR TREATING CANCERS” (HUEIYUAN BIOTECH LLC, priority 2023, published 2026)

Tests used:
[1] = tested on: LoVo-OXAR cells; conditions: 2000 μg/ml, 24 hours, versus control
Method: (§1) To evaluate whether the compound (II) induces apoptosis of cancer cells, terminal deoxynucleotidyl transferase dUTP nick-end labeling (TUNEL) assay was employed to detect apoptosis. In brief, LoVo-parental cells and LoVo-OXAR cells were treated with 500 μg/ml and 2000 μg/ml of the compound (II), respectively, for 24 hours before they were subject to TUNEL assay (In Situ Cell Death Detection Kit; Roche Applied Science, Indianapolis, IN, USA) and nuclear counterstain with 0.1 mg/ml 4′,6-diamidino-2-phenylindole (DAPI, Sigma-Aldrich, St. Louis, MO, USA). Lovo-parental or LoVo-OXAR cells treated with 0 μg/ml of the compound (II) were set as control groups. TUNEL-positive cells were examined by Olympus CKX53 microscope (Olympus, Shinjuku-ku, Tokyo, Japan).

[2] = tested on: LoVo-parental cells; conditions: 500 μg/ml, 24 hours, versus control
Method: as §1

[3] = tested on: EMT markers in LoVo-OXAR cells; conditions: qRT-PCR
From the text: (§2) Vimentin and E-cadherin are molecular markers linked to tumor progression through their roles in EMT, which is a pathological process contributing to migration and invasion of cancer cells and tumor progression. Vimentin is a key component of intermediate filaments, which helps maintain cellular integrity and resistance to stress. E-cadherin plays a role in maintaining epithelial phenotypes by mediating contact inhibition when cells proliferate and reach confluence. To further investigate the influence of the compound (II) on EMT marker expression, western blotting, immunofluorescence detection, and quantitative real-time reverse transcription polymerase chain reaction (qRT-PCR) were performed in LoVo-parental and LoVo-OXAR cells treated with various doses of the compound (II) for 24 hours.
(§3) Total RNA from the cells after the indicated treatments was extracted using the GeneJET RNA purification kit (ThermoFisher Scientific, Lithuania) and reverse transcribed to cDNA using a GScript First-Strand Synthesis Kit, a cDNA synthesis kit, and Oligo-dT primers according to the manufacturer's instructions. RT-PCR was performed using ORA^T SEE qPCR Green ROX L Mix, 2× (HighQu, USA). Primers for EMT markers (Vimentin, E-cadherin, TJP1, and FN1) and GAPDH (as endogenous control) were synthesized by Bio-ProTech based the sequences in TABLE 1. The 2^−ΔΔCt method was used to calculate a relative fold change in gene expression. […] TJP1 is a marker of epithelial cells that disappears during EMT and cancer development. In contrast, FN1 is involved in the occurrence and development of various tumors and acts as a critical gene in gastric cancer.

[4] = tested on: EMT markers in LoVo-parental cells; conditions: qRT-PCR
From the text: as §2, §3

[5] = tested on: LNCaP cells; conditions: 24 hours
Method: Human prostate carcinoma LNCaP cells (commercially available from ATCC under the number CRL-1740) were cultured in RPMI-1640 medium (Gibco™, Thermo Fisher Scientific, Waltham, MA, USA) supplemented with 10% FBS.

[6] = tested on: 143B cells; conditions: Transwell migration
Method: (§4) Transwell migration assay, as described in Example 5.1, was performed on 143B cells to investigate how the compound (II) would affect the migration ability of bone cancer cells.

[7] = tested on: EMT markers in 143B cells; conditions: western blot
Method: as §4

[8] = tested on: MDA-MB231 cells; conditions: 0-3000 μg/ml, 24 hours; effect more prominent than in T-47D
Method: (§5) Human breast cancer cells T-47D (commercially available from ATCC under the number HTB-133) and MDA-MB231 (commercially available from ATCC under the number HTB-26) were cultured in RPMI 1640 medium supplemented with 10% FBS.

[9] = tested on: T-47D cells; conditions: 0-3000 μg/ml, 24 hours
Method: as §5

[10] = tested on: SCC-25 cells; conditions: 0-1400 μg/ml, 24 hours
Method: Human oral squamous cell carcinoma (OSCC)SCC-25 cells (commercially available from ATCC under the number CRL-1628) were cultured in DMEM/F12 supplemented with 10% FBS.

[11] = tested on: Jurkat cells; conditions: 0-1600 μg/ml, 24 hours
Method: Human T-acute lymphoblastic leukemia Jurkat cells (resistant to cisplatin and commercially available from ATCC under the number TIB-512) were cultured in RPMI 1640 medium supplemented with 10% FBS.

[12] = tested on: LoVo-OXAR cells; conditions: 24 hours
[13] = tested on: LoVo-OXAR cells; conditions: single agent: compound (II) 2000 μg/ml or oxaliplatin 50 μg/ml, 48 hours
[14] = tested on: LoVo-parental cells; conditions: single agent: compound (II) 500 μg/ml or oxaliplatin 50 μg/ml, 72 hours
[15] = tested on: LoVo-OXAR cells; conditions: single agent: compound (II) 2000 μg/ml or oxaliplatin 50 μg/ml, 72 hours
[16] = tested on: PANC-1 cells tumor xenograft; assay: Subcutaneous PANC-1 tumor xenograft in C.B17/SCID mice; conditions: for Change in body weight / TGI (%): oral; for TGI (%): 14 days, read 14 days after the treatment period
[17] = Group 5: 150 mg/kg, twice a day

## CC(=O)[O-].CC(=O)[O-].CC(=O)[O-].CC(=O)[O-].CC(=O)[O-].CC(=O)[O-].O.O.O.O.O=[N+]([O-])[O-].[Cr+3].[Fe+3].[Fe+3].[OH-].[OH-] [compound (II)]
[1]
  apoptotic cell death (TUNEL) in LoVo-OXAR cells: significant increase in apoptotic cell death
[2]
  apoptotic cell death (TUNEL) in LoVo-parental cells: significant increase in apoptotic cell death
[3]
  E-cadherin mRNA expression: increased
  FN1 mRNA expression: decreased
  TJP1 mRNA expression: increased
  vimentin mRNA expression: decreased
[4]
  E-cadherin mRNA expression: increased
  FN1 mRNA expression: decreased
  TJP1 mRNA expression: increased
  vimentin mRNA expression: decreased
[5]; 0-1600 μg/ml
  viability of LNCaP cells: reduced the viability of the prostate cancer cells in a dose-dependent manner
[5]; MTT
  IC50 against LNCaP cells: approximately 1033 μg/ml
[6]
  crawling (migration) of 143B cells: inhibited by the compound (II) in a dose-dependent manner
[7]
  E-cadherin expression: increasing
  vimentin expression: significantly decreased
[8]
  viability of MDA-MB231 cells: reduced the viability of both breast cancer cells in a dose-dependent manner
[9]
  viability of T-47D cells: reduced the viability of both breast cancer cells in a dose-dependent manner
[10]
  viability of SCC-25 cells: reduced the viability of the OSCC cells in a dose-dependent manner
[11]
  viability of Jurkat cells: reduced the viability of the Jurkat cells in a dose-dependent manner
[12]; 0-4000 μg/ml
  viability of LoVo-OXAR cells: reduced the viability of both colorectal cancer cells in a dose-dependent manner
[12]; MTT
  IC50 against LoVo-OXAR cells: about 2000 μg/ml
[13]
  migration rate of LoVo-OXAR cells: significantly decreased
[14]
  invasion rate of LoVo-parental cells: significantly decreased
[15]
  invasion rate of LoVo-OXAR cells: significantly decreased
[16]; Group 3: 100 mg/kg, once a day
  Change in body weight: 107 ± 5%
  TGI (%): 51 ± 8%
[16]; Group 4: 150 mg/kg, once a day
  Change in body weight: 102 ± 3%
  TGI (%): 51 ± 6%
[16]; [17]
  Change in body weight: 103 ± 4%
  TGI (%): 88 ± 6%
[16]; Groups 3-5
  toxicity to mice at a therapeutically effective dose: not toxic to mice
[16]; Groups 3-5, FIG. 20B
  body weight of the mice: remained constant
